In one experiment the test system is calpain. Description: t-BOC calpain activity assay in intact HAECs. The experiment is classed as cell-based, human. To be noted: HAECs; DL-Hcy 500 μmol/L and/or D-Glu 25 mmol/L for 48 hrs. The procedure: (FIG. 5A). In situ .O2^− production in aorta. (FIG. 5B). Nitrotyrosine (3-NT) levels. Aortic paraffin-cross sections (7 μm) from Cbs^−/+ mice were stained with 3-NT antibody and 3,3′-diaminobenzidine (DAB, brown). (FIG. 5C). Urinary 8-isoprostane levels. At the age of 8-week, Cbs^+/+ and Cbs^−/+ mice were fed with a high methionine diet (HM, methionine: 2% w/w) for 8 weeks, and/or injected with streptozotocin (STZ, i.p., 40 mg/kg) for 5 consecutive days starting from the first day of experiment. Mice fed with a control diet (CT, methionine: 0.37% w/w) and injected with vehicle (50 mM citrate buffer) served as controls. Aortic cryo-cross sections (30 μm) from Cbs^−/+ mice were stained with the superoxide marker dihydroethidium (DHE, 3 μmol/L, 30 mins.). Urine was collected from 24 hrs metabolic cage. (FIG. 5D). Endothelium-dependent vascular relaxation in HHcy/HG CBS^−/+ mouse aorta in the presence of antioxidants. Arterial rings were pre-contracted with phenylephrine (1 μmol/L) and examined for relaxation to cumulative additions of ACh in the aorta of STZ-treated Cbs^−/+ mice on HM diet. The arterial rings were preincubated with antioxidants polyethylene glycol superoxide dismutase (PEG-SOD, 150 U/mL, Sigma #S9549), Tempol (1 mmol/L, Sigma #176141), or apocynin (10 μmol/L, Sigma #W508454) for 1 hr. n=3-5. *p<0.05 vs vehicle-treated Cbs^−/+ mice on CT diet; †p<0.05 vs vehicle-treated Cbs^−/+ mice on HM diet; ‡p<0.05 vs STZ-treated Cbs^−/+ mice on CT diet; #p<0.05 vs STZ-treated Cbs^−/+ mice on HM diet. (FIG. 5E). […] Calpain activity was measured by the fluorescent substrate t-BOC-Leu-Met-CMAC (T-BOC, 10 μmol/L, 30 min) Human aortic endothelial cells (HAECs, passage 8-9) were cultured in EC medium which contains 5 mmol/L D-glucose (D-Glu), treated with DL-homocysteine (DL-Hcy, 500 μmol/L) and/or D-Glu (25 mmol/L) with or without […] (150 U/mL) or MDL28170 (MDL, 20 μmol/L) for 48 hrs, or CTsiRNA and μ-calpsiRNA for 72 hrs. […] Transfection effect of μ-calpsiRNA in HAECs was detected by Western blot after transfected with the siRNA for indicated time. […]

In a further experiment the test system is eNOS. The experiment can be described thus: eNOS protein levels in HAECs. The experiment is classed as cell-based, human. The procedure:
(FIG. 7A). eNOS protein levels in mouse aorta of Cbs^−/+ mice (Left Panel) and HAECs (Right Panel). (FIG. 7B). eNOS-pThr497/495 protein levels in mouse aorta of Cbs^−/+ mice (Left Panel) and in HAECs (Right Panel). At the age of 8-week, Cbs^−/+ mice were fed with a high methionine diet (HM, methionine: 2% w/w) for 8 weeks, and/or injected with streptozotocin (STZ, i.p., 40 mg/kg) for 5 consecutive days starting from the first day of experiment. Mice fed with a control diet (CT, methionine: 0.37% w/w) and injected with vehicle (50 mmol/L citrate buffer) served as controls. Human aortic endothelial cells (HAECs, passage 8-9) were cultured in EC medium which contains 5 mmol/L D-glucose (D-Glu), treated with DL-homocysteine (DL-Hcy, 500 μmol/L) and/or D-Glu (25 mmol/L). (FIG. 7C). eNOS-pThr495 protein levels in HAECs. […]

The test system of the next experiment is mouse thoracic aorta. Description: Endothelium-dependent vascular relaxation to ACh in aortic rings treated ex vivo (multiple-wire myograph). To be noted: aortic rings of HHcy/HG-Cbs−/+ mice preincubated with calpain inhibitor 20 μmol/L for 1 hour; p<0.05.

The record followed here is patent US20160089391A1, “Molecular Targets for Cardiovascular Disease” (Temple University-of the Commonwealth System of Higher …, priority 2014, published 2016).

In turn, `O=C[C@H](O)[C@@H](O)[C@H](O)[C@H](O)CO` [D-Glu, D-glucose] registered a calpain activity increase in the experiment on calpain of 2.3 fold. Also, the “effect on eNOS protein levels” value in the experiment with eNOS (D-Glu 25 mmol/L, in the presence or absence of DL-Hcy) is reported as “no effect”.

In the case of MDL28170, in the experiment with mouse thoracic aorta, the “aortic endothelium-dependent vascular relaxation to ACh” value is given as “markedly improved”.

`NC(CCS)C(=O)O` (racemic) [DL-Hcy, DL-homocysteine]: the calpain activity increase in the experiment with calpain is 1.8 fold. In addition, the “decrease of eNOS protein levels” value with eNOS (DL-Hcy 500 μmol/L, 48 hrs) is recorded as 59%.
